Experimental data from US12364696B2, “Treatment of autoimmune disease” (priority 2019, dated 2025).
Read-outs that look alike come from different tables or passages of the source.

How the values were obtained:
[1] = Pharmacokinetics of sublingual tofacitinib, plasma LC MS/MS; type: in vivo, human; conditions: for concentration at 24 h: other: sublingual
Procedure: Blood samples were left to coagulate at room temperature for 20 minutes before centrifuging at 3500 rotations per minute for 15 minutes. The resulting separated plasma was extracted and stored at −20 degrees Celsius prior to processing using the liquid chromatography tandem mass spectrometry (LC MS/MS) method.
The mobile phase consisted of (A) 5 mM ammonium acetate pH 4 and (B) methanol. The gradient profile developed was: 0-2.0 min, 90% A, 10% B; 2.0-3.0 min, 30% A, 70% B; 3.0-4.0 min, 90% A, 10% B. A Shimadzu LC MS/MS-8050 triple quadrupole mass spectrometer (Shimadzu, Kyoto, Japan) was used to perform the mass spectrometry. MS/MS analysis was performed in positive ion mode using electrospray ionization conditions.

[2] = system: folliculitis decalvans and tufted folliculitis; assay: Additional case studies (data not shown); type: in vivo, human; conditions: sublingual
[3] = system: patients with moderate to severe, treatment-resistant alopecia areata; conditions: for Mean change from baseline in Assessment of Quality of Life-8D (AQoL-8D) score at Week 28: n = 13; for Mean change from baseline in Alopecia Areata Symptom Impact Scale (AASIS) score at Week 28 - Global Symptom Impact Score / Mean change from baseline in Alopecia Areata Symptom Impact Scale (AASIS) score at Week 28 - Scalp Hair Loss Score: n = 14
[4] = system: male patients with alopecia areata of the beard (BAA)
[5] = system: patients with lichen planopilaris and frontal fibrosing alopecia; conditions: for Patient-reported response: ceased treatment
[6] = system: patients with alopecia areata; conditions: oral tofacitinib 5 mg twice daily for 6 months; cited from earlier work
[7] = sublingual, 5 mg tablets, 3 months
[8] = sublingual, 5 mg tablets, 3 months, n = 16
[9] = sublingual, listed as sublingual tofacitinib
[10] = BAA subtype multiple patches, % of n = 45
[11] = BAA subtype solitary patch, % of n = 45
[12] = BAA subtype total beard loss, % of n = 45
[13] = all patients, n = 45 (21 oral, 24 sublingual)
[14] = degree of scalp hair regrowth Complete
[15] = degree of scalp hair regrowth Complete, % of n = 45
[16] = degree of scalp hair regrowth None
[17] = degree of scalp hair regrowth None, % of n = 45
[18] = degree of scalp hair regrowth Partial
[19] = degree of scalp hair regrowth Partial, % of n = 45

C[C@@H]1CCN(C(=O)CC#N)C[C@@H]1N(C)c1ncnc2[nH]ccc12 [tofacitinib]
Number of patients who achieved tmax at 0.5 hour ([1]; Week 28, last dose, 15 patients): One
Trace plasma levels prior to the last dose (range) ([1]; Week 28, pre-dose, 10 patient samples): 0.5 to 10.0 ng/mL
half-life ([1]; human, plasma, 5 mg, sublingual, Week 28 (FIG. 5b), read-out: Estimated elimination half-life (plasma concentration halving from 29.14 ng/ml to 14.6 ng/ml) (converted)): ~11 h
concentration at 24 h ([1]; human, plasma, 5 mg, Week 16, likely spuriously elevated by the nocte dose): 7.39 ng/mL
concentration at 24 h ([1]; human, plasma, 5 mg, Week 28, no nocte dose): 0.28 ng/mL
Tmax ([1]; human, plasma, sublingual, 5 mg tablet, read-out: Average time (tmax) to maximum plasma concentration): 1 h
Cmax ([1]; human, plasma, sublingual, 5 mg tablet, read-out: Maximum plasma concentration (Cmax), average): 43.2 ng/mL
Usefulness for treatment of folliculitis decalvans and tufted folliculitis [2]: useful
Changes in blood biochemistry ([3]; human, in vivo): no clinically significant changes
Serious adverse events ([3]; human, in vivo): no serious adverse events
Withdrawals secondary to adverse events ([3]; human, in vivo): no withdrawals secondary to adverse events
Good grade respondents (50-75%), proportion [3, 7]: 1/16
High grade respondents (75-100%), proportion [3, 7]: 1/16
Low grade respondents (15-29% reduction in SALT score at Week 28), proportion [3, 7]: 3/16
Mean reduction in SALT score of the two patients who achieved >50% reduction [3, 7]: 60.3%
Medium grade respondents (30-49%), proportion [3, 7]: 1/16
Participants achieving at least 1 grade improvement in eyebrow assessment scale at Week 28, proportion [3, 7]: 8/16
Participants achieving at least 1 grade improvement in eyelash assessment scale at Week 28, proportion [3, 7]: 6/16
Participants who achieved a 100% reduction in SALT score at Week 28 [3, 7]: No participants
Patients who achieved a >50% reduction in SALT score [3, 7]: 12.5%
Mean reduction from baseline (Week 16) of SALT score at Week 28 [3, 8]: 15.57%
Participants achieving at least 1 grade improvement in eyebrow assessment scale at Week 28, percentage [3, 8]: 50%
Participants achieving at least 1 grade improvement in eyelash assessment scale at Week 28, percentage [3, 8]: 37.5%
Participants achieving at least 1 grade improvement in eyebrow assessment scale at Week 28, percentage ([3]; sublingual, 5 mg tablets, 3 months, n = 16, listed as sublingual tofacitinib): (50%)
Total Treatment Response, proportion ([3]; sublingual, 5 mg tablets, Week 28 vs Week 16): 6/16
Total Treatment Response, percentage ([3]; sublingual, 5 mg tablets, Week 28 vs Week 16, n = 16, listed as Sublingual tofacitinib): 37.5%
Mean change from baseline in Assessment of Quality of Life-8D (AQoL-8D) score at Week 28 ([3]; sublingual): 0.0148
Mean change from baseline in Assessment of Quality of Life-8D (AQoL-8D) score at Week 28 [3, 9]: −0.0148
Mean change from baseline in Alopecia Areata Symptom Impact Scale (AASIS) score at Week 28 - Global Symptom Impact Score ([3]; sublingual): 0.1306
Mean change from baseline in Alopecia Areata Symptom Impact Scale (AASIS) score at Week 28 - Scalp Hair Loss Score ([3]; sublingual): 2.2142
Mean change from baseline in Alopecia Areata Symptom Impact Scale (AASIS) score at Week 28 - Global Symptom Impact Score [3, 9]: −0.1306
Mean change from baseline in Alopecia Areata Symptom Impact Scale (AASIS) score at Week 28 - Scalp Hair Loss Score [3, 9]: −2.2142
Duration of treatment after which complete beard regrowth was achieved (mean) ([4]; 10 complete beard responders): 16.0 months
Duration of treatment after which complete beard regrowth was achieved (range) ([4]; 10 complete beard responders): 5.0-28.0 months
Men with complete beard regrowth who also achieved complete scalp hair regrowth ([4]; 10 complete beard responders): 60%
Degree of beard regrowth Complete, number of patients ([4]; BAA subtype multiple patches): 7
Degree of beard regrowth None, number of patients ([4]; BAA subtype multiple patches): 8
Degree of beard regrowth Partial, number of patients ([4]; BAA subtype multiple patches): 9
Degree of beard regrowth Complete, % of patients [4, 10]: 15.6%
Degree of beard regrowth None, % of patients [4, 10]: 17.8%
Degree of beard regrowth Partial, % of patients [4, 10]: 20.0%
Degree of beard regrowth Complete, number of patients ([4]; BAA subtype solitary patch): 0
Degree of beard regrowth None, number of patients ([4]; BAA subtype solitary patch): 2
Degree of beard regrowth Partial, number of patients ([4]; BAA subtype solitary patch): 0
Degree of beard regrowth Complete, % of patients [4, 11]: 0.0%
Degree of beard regrowth None, % of patients [4, 11]: 4.5%
Degree of beard regrowth Partial, % of patients [4, 11]: 0.0%
Degree of beard regrowth Complete, number of patients ([4]; BAA subtype total beard loss): 3
Degree of beard regrowth None, number of patients ([4]; BAA subtype total beard loss): 6
Degree of beard regrowth Partial, number of patients ([4]; BAA subtype total beard loss): 10
Degree of beard regrowth Complete, % of patients [4, 12]: 6.7%
Degree of beard regrowth None, % of patients [4, 12]: 13.3%
Degree of beard regrowth Partial, % of patients [4, 12]: 22.2%
Degree of beard regrowth Complete, % of patients [4, 13]: 22.2%
Degree of beard regrowth Complete, number of patients [4, 13]: Ten
Degree of beard regrowth None, % of patients [4, 13]: 35.6%
Degree of beard regrowth None, number of patients [4, 13]: 16
Degree of beard regrowth Partial, % of patients [4, 13]: 42.2%
Degree of beard regrowth Partial, number of patients [4, 13]: 19
Degree of beard regrowth Complete, number of patients ([4]; all patients, n = 45 (21 oral, 24 sublingual), listed as oral tofacitinib): 10
Degree of beard regrowth Complete, number of patients [4, 14]: 6
Degree of beard regrowth None, number of patients [4, 14]: 0
Degree of beard regrowth Partial, number of patients [4, 14]: 1
Degree of beard regrowth Complete, % of patients [4, 15]: 13.3%
Degree of beard regrowth None, % of patients [4, 15]: 0.0%
Degree of beard regrowth Partial, % of patients [4, 15]: 2.2%
Degree of beard regrowth Complete, number of patients [4, 16]: 1
Degree of beard regrowth None, number of patients [4, 16]: 14
Degree of beard regrowth Partial, number of patients [4, 16]: 3
Degree of beard regrowth Complete, % of patients [4, 17]: 2.2%
Degree of beard regrowth None, % of patients [4, 17]: 31.1%
Degree of beard regrowth Partial, % of patients [4, 17]: 6.7%
Degree of beard regrowth Complete, number of patients [4, 18]: 3
Degree of beard regrowth None, number of patients [4, 18]: 2
Degree of beard regrowth Partial, number of patients [4, 18]: 15
Degree of beard regrowth Complete, % of patients [4, 19]: 6.7%
Degree of beard regrowth None, % of patients [4, 19]: 4.5%
Degree of beard regrowth Partial, % of patients [4, 19]: 33.3%
Patients with mild adverse events (upper respiratory infections, elevated liver transaminases, fatigue, acne) ([4]; n = 45, oral or sublingual): 10
Serious adverse events ([4]; n = 45, oral or sublingual): no serious adverse events
SALT score post-tofacitinib, Mean ± SD ([4]; n = 45, oral or sublingual, pre-tofacitinib 62.0 ± 38.9): 41.7 ± 38.5
SALT score post-tofacitinib, Median (Range) ([4]; n = 45, oral or sublingual, pre-tofacitinib 69.0 (2.0-100.0)): 29.0 (0.0-100.0)
Complete response, number of patients ([4]; oral, N = 21, beard): 0
No response, number of patients ([4]; oral, N = 21, beard): 9
Partial response, number of patients ([4]; oral, N = 21, beard): 12
Complete response, number of patients ([4]; sublingual, n = 24, beard): 10
No response, number of patients ([4]; sublingual, n = 24, beard): 7
Partial response, number of patients ([4]; sublingual, n = 24, beard): 7
Side effects ([5]; Patient 1): No side effects
Activity of lichen planopilaris ([5]; Patient 1, sublingual 5-10 mg daily, July 2019 to February 2020, with concurrent medications): controlled
Side effects ([5]; Patient 2): No side effects
Symptoms of lichen planopilaris ([5]; Patient 2, up to 5 mg in the morning and 2.5 mg at night, with concurrent medications): symptom-free
Patient-reported response ([5]; Patient 3, lichen planopilaris, 2 mg twice daily increased to 7.5 mg): not happy with the response
Patient-reported response ([5]; Patient 4, lichen planopilaris/frontal fibrosing alopecia, 2.5 mg twice daily for 12 months): not happy with the response
Effect on symptoms of lichen planopilaris and frontal fibrosing alopecia ([5]; series of case studies, sublingual): demonstrated activity at reducing the symptoms
Response rate [6]: 64.9%
